The results in this text go back to publication PMC8209153, “Improvement in aqueous solubility of achiral symmetric cyclofenil by modification to a chiral asymmetric analog” (Scientific Reports, 2021).

Structures are written as SMILES. Converted amounts (≈) assume the structure as drawn.

Data set [1] deals with human cryopreserved hepatocytes. Description: Metabolic rate of prodrugs in human cryopreserved hepatocytes. Format: in vitro ADME. Particulars: human hepatocytes 1.0×10^6 cells/mL, 50 μM, 2 h, 37 °C. The procedure: The metabolic rate of prodrugs was evaluated using human cryopreserved hepatocytes (Table 3). Although the metabolic rate of 3d with a bulky acyl group was decreased, most of the asymmetric structural analogs, including those with improved aqueous solubility (3b, 4a, (R)-4c), were metabolized to the active form as quickly as 1. Thus, we concluded that the chemical modifications applied here had little effect on the metabolic rate.
(§1) Test compounds (final 50 μM) in DMSO (final 0.5%) were added to a suspension of human hepatocytes (HMCS1S, Thermo Fisher Scientific) at a density of 1.0×10^6 cells/mL. The cells were incubated at 37 °C in humidified incubator (5% CO2) for 2 h, and then acetonitrile was added to stop the reaction. The mixture was vortexed and centrifuged at 15000 rpm for 10 min. HPLC analysis of the supernatant was performed on an analytical column (ODS reversed-phase column, 5 μm, 4.6 mm x 150 mm) eluted with a mobile phase consisting of H2O and CH3CN at a flow rate of 1.0 mL/min at 37 °C, with UV monitoring at 254 nm. Because some analogs were hydrolyzed in the absence of hepatocytes, we also evaluated the hydrolysis rate without hepatocytes.

A short description of data set [2]: Hydrolysis of prodrugs without hepatocytes. Format: in vitro ADME. Particulars: 50 μM, 2 h, 37 °C. How it is done:
as §1

The nature of data set [3]: LogP. In kind it is physicochemical. From the text:
LogP values of all analogs were higher than that of 1, as expected. […] The observation that the measured crystal densities of 3b, 4a and (R)-4c were lower than that of 1 supports this idea.

The nature of data set [4]: Thermodynamic aqueous solubility of the most stable crystals. The note with it: for solubility at 48 h: phosphate buffer/EtOH (6:4), aqueous with cosolvent or surfactant or cyclodextrin, thermodynamic from solid, mixture of 0.067 M phosphate buffer (pH 6.8) and EtOH (6:4), shaken 48 h at 4 °C, most stable crystals; for Fold more soluble than symmetric isomer 6: relative to 6. In kind it is physicochemical. How it is done: The crystals were ground with an agate mortar and suspended in a mixture of 0.067 M phosphate buffer (pH 6.8) and EtOH (6:4). The suspension was shaken for 48 h at 4 °C, then filtered through a Millipore Millex-LG filter (0.20 μm). The filtrate was diluted in DMF and subjected to HPLC. The solubility was calculated by the absolute calibration curve method. We used a mixed solvent because the solubility in 0.067 M phosphate buffer (pH 6.8) was too low to allow quantification. EtOH is used clinically as a solubilizer for insoluble drugs such as taxol and pacritaxel. When the solutions were shaken at 37 °C, hydrolysis of the ester moiety occurred, and therefore the suspensions were shaken at 4 °C.

Data set [5] in a line: Membrane permeability by retention on IAM column. Format: in vitro ADME. Particulars: IAM.PC.DD2 column, 0.1 M phosphate buffer (pH 6.8) in 60% CH3CN, 1.0 mL/min, 37 °C. The procedure:
Membrane permeability was determined by HPLC on an IAM.PC.DD2 column (Regis Technologies, Inc., 10 μm, 300 Å, 30 mm × 4.6 mm) eluted with mobile phase consisting of 0.1 M phosphate buffer (pH 6.8) and CH3CN (4:6) at a flow rate of 1.0 mL/min, with UV monitoring at 254 nm, 37 °C.
Firstly, we evaluated membrane permeability by using an Immobilized Artificial Membrane (IAM) column, which contains silica gel bearing phosphatidylcholine and widely utilized to predict membrane permeability[31],[32].

Data set [6] in a line: Crystal density (X-ray crystallography). In kind it is physicochemical. The note with it: measured crystal density.
For data set [7], the target named is T1, ERβ (Homo sapiens, UniProt Q92731).
T1 construct: expressed in transfected cells; host or cells: HEK 293 cells
Description: Luciferase reporter gene assay, ERβ antagonistic activity. In kind it is cell-based. Particulars: HEK 293 cells, GAL4N-human ERβ ligand binding domain, with 0.3 nM estradiol, 24 h; mean ± SD. The procedure:
(§2) HEK 293 cells were cultured in DMEM supplemented with 10% FBS and penicillin and streptomycin at 37 °C in a humidified incubator (5% CO2).
(§3) HEK 293 cells were plated at 20% confluence in a 96-well plate at 24 h prior to transfection. Transfection of plasmids (CMX-GAL4N-human ERα/β ligand binding domain, TK-MH100x4-Luc, CMX-β-galactosidase) was performed by the calcium phosphate coprecipitation method. Test compounds in DMSO (final 0.5%) were added at 24 h after transfection, together with 0.3 nM estradiol. The plate was incubated for 24 h, then luciferase substrate solution was added to each well and luminescence was measured on an EnVision microplate reader. β-Galactosidase was added and the absorbance was measured on the microplate reader with emission detection at 405 nm. Each sample was evaluated in triplicate for two times and the mean value was calculated. A six-point sigmoidal dose-response curve was generated for each compound. The IC50 value for each compound was calculated by Origin software. In Table 4, biological reproducibility is reported as the mean IC50 SD.

The target in data set [8] is T2, ERα (Homo sapiens, UniProt P03372).
T2 construct: expressed in transfected cells; host or cells: HEK 293 cells
T2 sequence (P03372 311-547 limits assumed): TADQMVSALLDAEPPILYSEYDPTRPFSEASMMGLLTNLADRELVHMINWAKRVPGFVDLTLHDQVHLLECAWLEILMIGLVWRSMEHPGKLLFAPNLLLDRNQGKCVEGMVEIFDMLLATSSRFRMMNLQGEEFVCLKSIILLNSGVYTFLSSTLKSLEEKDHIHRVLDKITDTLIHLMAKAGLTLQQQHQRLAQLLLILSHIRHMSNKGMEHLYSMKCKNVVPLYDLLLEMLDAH
Description: Luciferase reporter gene assay, ERα antagonistic activity. In kind it is cell-based. Particulars: HEK 293 cells, GAL4N-human ERα ligand binding domain, with 0.3 nM estradiol, 24 h; mean ± SD. The procedure: as §2, §3

The mark [9] stands for this setting: phosphate buffer (pH 6.8)/EtOH (6:4).

T1 sequence (Q92731 264-498 limits assumed): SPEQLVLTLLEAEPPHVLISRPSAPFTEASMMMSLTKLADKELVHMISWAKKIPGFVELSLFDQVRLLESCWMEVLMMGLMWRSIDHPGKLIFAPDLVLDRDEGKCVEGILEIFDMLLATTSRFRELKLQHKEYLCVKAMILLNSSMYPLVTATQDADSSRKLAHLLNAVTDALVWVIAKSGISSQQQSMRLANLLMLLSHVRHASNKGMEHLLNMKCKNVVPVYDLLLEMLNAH

The term logP denotes the decadic logarithm of the partition coefficient of the neutral form, usually between octanol and water. High values mean higher lipophilicity, low ones lower lipophilicity. Usually solubility stands for the dissolved amount per volume that the medium holds. One may read the melting point as the temperature, or range, at which the solid turns liquid. Compound `CC(=O)Oc1ccc(C(=C2CCCCC2)c2ccc(OC(C)=O)c(C)c2)cc1` [Compound 4a, 4-((4-Acetoxy-3-methylphenyl)(cyclohexylidene)methyl)phenylacetate] registered a melting point of 114 °C. Further, the “Hydrolysis rate with hepatocytes” value in data set [1] came out at 100%. Moreover, the “Hydrolysis rate without hepatocytes” value in [2] is recorded as 0%. Moreover, the logP in data set [3] came out at 5.26. In [4], the solubility at 48 h was determined as 10.3 µg/mL (≈ 27.2 µM). Further, in [4] (setting [9]), the “Fold more soluble than symmetric isomer 6” value was found to be 2.9 fold. In addition, the “Retention time on IAM column” value in data set [5] is 3.72 min.
Compound `CC(=O)Oc1ccc(C(=C2CCC[C@@H](C)C2)c2ccc(OC(C)=O)cc2)cc1` [(R)-4c, (R)-((3-Methylcyclohexylidene)methylene)bis(4,1-phenylene)diacetate] had a melting point of 92 °C. The “Hydrolysis rate with hepatocytes” value in data set [1] amounted to 100%. Moreover, the “Hydrolysis rate without hepatocytes” value in data set [2] is reported as 13.8%. In data set [3], the logP worked out at 5.34. The compound also registered a Crystal density in [6] of 1.227 g/mL. In addition, in data set [4], the solubility at 48 h was found to be 27.8 µg/mL (≈ 73.5 µM). In addition, the “Fold more soluble than symmetric isomer 6” value in data set [4] (setting [9]) was 7.7 fold. The “Fold more soluble than 1” value in data set [4] (relative to cyclofenil (1), phosphate buffer (pH 6.8)/EtOH (6:4)) is reported as 3.6 fold. In addition, the “Retention time on IAM column” value in [5] worked out at 3.93 min.
The compound `CC(=O)Oc1ccc(C(=C2CCCCC2)c2ccc(OC(C)=O)cc2C)cc1` [Compound 4b, 4-((4-Acetoxy-2-methylphenyl)(cyclohexylidene)methyl)phenylacetate] showed a melting point of 99.9 °C. The same compound gave a logP in [3] of 5.12. For the same compound, in [4], the solubility at 48 h was found to be 23.6 µg/mL (≈ 62.4 µM). The “Fold more soluble than symmetric isomer 6” value in data set [4] (setting [9]) worked out at 6.5 fold.
In turn, `CC(C)C(=O)Oc1ccc(C(=C2CCCCC2)c2ccc(OC(=O)C(C)C)cc2)cc1` [Compound 5c, (Cyclohexylidenemethylene)bis(4,1-phenylene)bis(2-methylpropanoate)] returned a melting point of 129 °C. This compound also gave a logP in [3] of 7.16. In data set [4], the solubility at 48 h was determined as 0.0811 µg/mL (≈ 0.193 µM).
In general, IC50 refers to the point on the concentration scale where inhibition reaches its midpoint. Read a high IC50 as weaker potency. `C[C@@H]1CCCC(=C(c2ccc(O)cc2)c2ccc(O)cc2)C1` [(R)-13a, (R)-4,4’-((3-Methylcyclohexylidene)methylene)diphenol]: the half-inhibitory concentration (IC50) is 4.5 ± 0.57 nM in data set [7] and 16 ± 0.71 nM in data set [8].
Take `Cc1cc(C(=C2CCCCC2)c2ccc(O)cc2)ccc1O` [Compound 10a, 4-(Cyclohexylidene(4-hydroxyphenyl)methyl)-2-methylphenol]: the IC50 in data set [7] came to 51 ± 40 nM; in [8], 120 ± 7.1 nM.
In the case of `Oc1ccc(C(=C2CCCCC2)c2ccc(O)cc2)cc1` [Compound 2, Bis(4-hydroxyphenyl)methylenecyclohexane, reference compound], the IC50 in [7] amounted to 4.5 ± 0.99 nM; in data set [8], 13 ± 7.5 nM.
In turn, `CC(=O)Oc1ccc(C(=C2CCCCC2)c2ccc(OC(=O)C(C)C)cc2)cc1` [Compound 3c, 4-((4-Acetoxyphenyl)(cyclohexylidene)methyl)phenylisobutyrate] gave a melting point of 136.5 °C. Moreover, in data set [1], the “Hydrolysis rate with hepatocytes” value is 94.5%. Further, the “Hydrolysis rate without hepatocytes” value in data set [2] stood at 0%. Also, the logP in [3] was 6.01. In data set [4], the solubility at 48 h worked out at 0.719 µg/mL (≈ 1.83 µM). The “Retention time on IAM column” value in data set [5] is given as 5.93 min.
Consider `CC(=O)Oc1ccc(C(=C2CCCCC2)c2ccc(OC(=O)C(C)(C)C)cc2)cc1` [Compound 3d, 4-((4-Acetoxyphenyl)(cyclohexylidene)methyl)phenylpivalate], for which the melting point worked out at 127 °C. Also, the “Hydrolysis rate with hepatocytes” value in data set [1] is 77.7%. The “Hydrolysis rate without hepatocytes” value in data set [2] worked out at 0%. The logP in [3] amounted to 6.5. The solubility at 48 h in data set [4] was 2.25 µg/mL (≈ 5.53 µM). In addition, in [5], the “Retention time on IAM column” value amounted to 8.44 min.
Compound `CCCC(=O)Oc1ccc(C(=C2CCCCC2)c2ccc(OC(=O)CCC)cc2)cc1` [Compound 5b, (Cyclohexylidenemethylene)bis(4,1-phenylene)dibutyrate] had a melting point of 80.9 °C. In [3], this compound returned a logP of 7.08. Moreover, the Crystal density in [6] was 1.244 g/mL. Moreover, the solubility at 48 h in [4] was 0.964 µg/mL (≈ 2.29 µM).
`CC(=O)Oc1ccc(C(=C2CCC(C)CC2)c2ccc(OC(C)=O)cc2)cc1` (stereo not drawn) [Compound 6, ((4-Methylcyclohexylidene)methylene)bis(4,1-phenylene)diacetate] displayed a melting point of 137 °C. In addition, in data set [3], the lipophilicity (logP) amounted to 5.41. The Crystal density in [6] stood at 1.243 g/mL. Further, in data set [4], the solubility at 48 h is 3.61 µg/mL (≈ 9.54 µM).
`CCC(=O)Oc1ccc(C(=C2CCCCC2)c2ccc(OC(=O)CC)cc2)cc1` [Compound 5a, (Cyclohexylidenemethylene)bis(4,1-phenylene)dipropionate] registered a melting point of 139 °C. The logP in data set [3] is 6.02. For the same compound, the solubility at 48 h in [4] turned out to be 0.622 µg/mL (≈ 1.58 µM).
`CCCC(=O)Oc1ccc(C(=C2CCCCC2)c2ccc(OC(C)=O)cc2)cc1` [Compound 3b, 4-((4-Acetoxyphenyl)(cyclohexylidene)methyl)phenylbutyrate]: the melting point came to 69 °C. Also, in data set [1], the “Hydrolysis rate with hepatocytes” value turned out to be 92.1%. Also, the “Hydrolysis rate without hepatocytes” value in data set [2] was found to be 6.3%. Also, the logP in data set [3] was determined as 6. The same compound gave a Crystal density in data set [6] of 1.236 g/mL. The solubility at 48 h in [4] is 10.8 µg/mL (≈ 27.5 µM). For the same compound, the “Fold more soluble than symmetric isomer 5a” value in data set [4] (relative to 5a, phosphate buffer (pH 6.8)/EtOH (6:4)) came out at 17.3 fold. Moreover, the “Retention time on IAM column” value in data set [5] is listed as 5.97 min.
`CCC(=O)Oc1ccc(C(=C2CCCCC2)c2ccc(OC(C)=O)cc2)cc1` [Compound 3a, 4-((4-Acetoxyphenyl)(cyclohexylidene)methyl)phenylpropionate] gave a melting point of 132.8 °C. In data set [1], the “Hydrolysis rate with hepatocytes” value was found to be 100%. Further, the “Hydrolysis rate without hepatocytes” value in [2] was 15.8%. In addition, in data set [3], the logP came out at 5.48. Besides, the solubility at 48 h in data set [4] is 3.38 µg/mL (≈ 8.93 µM). Moreover, in [5], the “Retention time on IAM column” value is 4.22 min.
